From patent publication US20100015141A1, “4-PHENOXY-6-ARYL-1H-PYRAZOLO[3,4-D]PYRIMIDINE AND N-ARYL-6-ARYL-1H-PYRAZOLO[3,4-D]PYRIMIDIN-4-AMINE COMPOUNDS, THEIR USE AS MTOR KINASE AND PI3 KINASE INHIBITORS, AND THEIR SYNTHESES” (Wyeth, priority 2008, published 2010)

Tests used:
Assay type in all cases: biochemical
[1] = target: PI3K-γ (Homo sapiens, UniProt P48736); assay: PI3K-gamma fluorescence polarization assay; conditions: 20 μM PIP2, 25 μM ATP
Protocol: (§1) The reaction buffer was 20 mM HEPES pH7.5, 2 mM MgCl2, 0.05% CHAPS, and 0.01% βME (added fresh). The substrate solution was 40 μM PIP2 (diC8, Echelon, Salt Lake City Utah cat #P-4508, 1 mM in water) and 50 μM ATP in the reaction buffer. Nunc 384-well black polypropylene fluorescent plates were used for PI3K assays. The assay is run by putting 9.5 μl of freshly diluted enzyme in the reaction buffer per well, adding 0.5 μl of diluted drug or DMSO, and mixing. Then 10 μl of the substrate solution is added to each well to start the reaction. A final concentration of 20 μM PIP2 and 25 μM ATP in the reaction was used. Reactions were allowed to proceed for 30-60 minutes at room temperature. After 30-60 minutes, 20 μl of a solution of 10 nM TAMRA detector (Red detector probe-Echelon) and 2.5 uM of GST-murineGRP (1.5 mg/ml in 17% glycerol) was added per well to stop the reaction. The resulting solution was mixed well and allowed to stand for 90-110 minutes before reading plate. Assay Plates were read on Perkin-Elmer Envision plate readers with appropriate filters for Tamra [BODIPY-TMRI(1,3,4,5)P4]. Data obtained were used to calculate enzymatic activity and enzyme inhibition by inhibitor compounds. It is important to keep Red probe solutions dark. This procedure is adapted from Echelon Biosciences Inc procedure for their PI3-Kinase fluorescence polarization activity Assay kit Product number K-1100.

[2] = target: PI3K-α (Homo sapiens, UniProt P42336); assay: PI3K-alpha fluorescence polarization assay; conditions: 20 μM PIP2, 25 μM ATP
Sequence of PI3K-α (P42336 whole entry, species assumed): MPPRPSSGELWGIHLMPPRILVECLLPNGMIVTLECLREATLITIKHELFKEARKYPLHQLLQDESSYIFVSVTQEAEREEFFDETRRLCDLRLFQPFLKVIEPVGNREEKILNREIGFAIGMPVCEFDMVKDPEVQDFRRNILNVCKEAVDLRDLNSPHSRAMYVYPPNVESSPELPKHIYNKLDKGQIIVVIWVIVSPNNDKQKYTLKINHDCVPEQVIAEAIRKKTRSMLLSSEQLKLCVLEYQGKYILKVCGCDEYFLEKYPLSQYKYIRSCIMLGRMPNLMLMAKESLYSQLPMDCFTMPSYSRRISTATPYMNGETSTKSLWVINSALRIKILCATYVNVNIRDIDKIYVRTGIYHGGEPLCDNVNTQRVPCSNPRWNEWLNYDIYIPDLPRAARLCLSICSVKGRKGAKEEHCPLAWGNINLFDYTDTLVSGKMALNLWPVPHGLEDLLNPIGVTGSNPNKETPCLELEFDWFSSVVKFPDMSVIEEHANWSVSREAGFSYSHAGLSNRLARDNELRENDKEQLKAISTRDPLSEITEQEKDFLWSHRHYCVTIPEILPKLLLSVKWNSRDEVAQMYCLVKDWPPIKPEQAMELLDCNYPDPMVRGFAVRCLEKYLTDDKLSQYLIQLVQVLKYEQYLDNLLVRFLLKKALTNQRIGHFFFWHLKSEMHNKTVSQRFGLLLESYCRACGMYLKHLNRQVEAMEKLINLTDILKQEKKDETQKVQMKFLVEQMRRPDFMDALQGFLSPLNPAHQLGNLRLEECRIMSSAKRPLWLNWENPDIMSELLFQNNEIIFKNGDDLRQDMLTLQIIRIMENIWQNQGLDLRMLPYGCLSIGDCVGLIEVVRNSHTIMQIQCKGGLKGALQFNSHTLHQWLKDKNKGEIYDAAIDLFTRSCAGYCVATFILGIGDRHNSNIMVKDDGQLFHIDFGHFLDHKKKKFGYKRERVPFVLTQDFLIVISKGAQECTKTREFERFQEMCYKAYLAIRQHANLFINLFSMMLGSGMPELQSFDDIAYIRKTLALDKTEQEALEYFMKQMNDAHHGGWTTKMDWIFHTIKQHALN
Sequence of PI3K-α (P27986 whole entry partner, species assumed): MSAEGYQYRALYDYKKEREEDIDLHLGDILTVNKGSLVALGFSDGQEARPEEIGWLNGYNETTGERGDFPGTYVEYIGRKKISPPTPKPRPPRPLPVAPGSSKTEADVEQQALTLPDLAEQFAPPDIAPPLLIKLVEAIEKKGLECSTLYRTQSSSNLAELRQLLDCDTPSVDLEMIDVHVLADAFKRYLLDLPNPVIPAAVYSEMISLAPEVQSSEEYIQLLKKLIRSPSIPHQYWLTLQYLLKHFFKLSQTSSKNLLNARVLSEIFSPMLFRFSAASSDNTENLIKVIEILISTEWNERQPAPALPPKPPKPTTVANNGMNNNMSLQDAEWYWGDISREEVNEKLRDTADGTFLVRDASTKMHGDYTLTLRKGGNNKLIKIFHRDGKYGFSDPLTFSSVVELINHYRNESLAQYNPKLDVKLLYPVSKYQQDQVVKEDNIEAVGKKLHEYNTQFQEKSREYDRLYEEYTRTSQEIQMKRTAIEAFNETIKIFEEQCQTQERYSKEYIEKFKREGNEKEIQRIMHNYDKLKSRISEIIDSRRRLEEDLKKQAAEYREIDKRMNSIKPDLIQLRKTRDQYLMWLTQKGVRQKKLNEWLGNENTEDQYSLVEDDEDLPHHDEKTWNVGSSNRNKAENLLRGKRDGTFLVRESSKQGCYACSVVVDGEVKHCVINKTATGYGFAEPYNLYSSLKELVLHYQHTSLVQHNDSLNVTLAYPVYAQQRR
Protocol: as §1

[3] = target: mTOR (Homo sapiens, UniProt P42345); assay: mTOR enzyme assay (DELFIA, His6-S6K phosphorylation); design: FLAG; conditions: 100 μM ATP, 1.25 μM His6-S6K

Sequence of PI3K-γ (P48736 whole entry, species assumed): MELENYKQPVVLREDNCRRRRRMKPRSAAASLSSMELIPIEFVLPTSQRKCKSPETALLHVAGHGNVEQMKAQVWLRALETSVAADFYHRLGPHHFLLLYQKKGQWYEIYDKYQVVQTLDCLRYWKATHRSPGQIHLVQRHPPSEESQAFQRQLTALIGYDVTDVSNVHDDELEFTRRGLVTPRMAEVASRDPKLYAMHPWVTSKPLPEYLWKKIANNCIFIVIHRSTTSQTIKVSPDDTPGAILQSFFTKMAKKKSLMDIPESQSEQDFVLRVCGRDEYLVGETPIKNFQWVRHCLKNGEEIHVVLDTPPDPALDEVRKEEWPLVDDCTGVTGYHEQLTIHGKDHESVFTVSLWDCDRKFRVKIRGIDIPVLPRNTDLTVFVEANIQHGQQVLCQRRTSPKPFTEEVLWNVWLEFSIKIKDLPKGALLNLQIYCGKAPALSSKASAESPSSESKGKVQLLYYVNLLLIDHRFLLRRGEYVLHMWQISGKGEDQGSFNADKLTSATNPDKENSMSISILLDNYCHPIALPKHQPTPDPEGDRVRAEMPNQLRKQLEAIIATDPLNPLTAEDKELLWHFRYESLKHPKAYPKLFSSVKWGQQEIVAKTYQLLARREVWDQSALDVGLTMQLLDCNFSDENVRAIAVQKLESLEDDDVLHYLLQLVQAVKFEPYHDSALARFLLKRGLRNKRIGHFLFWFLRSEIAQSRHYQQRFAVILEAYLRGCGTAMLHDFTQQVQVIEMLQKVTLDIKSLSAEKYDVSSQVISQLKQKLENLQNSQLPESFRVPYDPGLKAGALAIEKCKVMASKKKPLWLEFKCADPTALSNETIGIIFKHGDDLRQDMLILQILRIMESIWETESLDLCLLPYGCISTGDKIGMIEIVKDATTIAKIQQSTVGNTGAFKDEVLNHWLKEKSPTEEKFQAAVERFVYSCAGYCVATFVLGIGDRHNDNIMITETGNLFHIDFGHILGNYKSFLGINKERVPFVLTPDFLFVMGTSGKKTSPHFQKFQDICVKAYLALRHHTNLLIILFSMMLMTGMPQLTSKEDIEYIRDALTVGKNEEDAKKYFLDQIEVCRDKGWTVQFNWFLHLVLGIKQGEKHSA

IC50 [1]	IC50 [2]	IC50 [3]	SMILES
7 µM	6.11 µM		NC(=O)c1ccc(Nc2nc(-c3ccccc3)nc3c2cnn3C2CCN(Cc3ccccc3)CC2)cc1 [Example 1, 4-{[1-(1-benzylpiperidin-4-yl)-6-phenyl-1H-pyrazolo[3,4-d]pyrimidin-4-yl]amino}benzamide]
5.1 µM	> 10 µM		COc1ccc(Nc2nc(-c3ccccc3)nc3c2cnn3C2CCN(Cc3ccccc3)CC2)cc1OC [Example 2, 1-(1-benzylpiperidin-4-yl)-N-(3,4-dimethoxyphenyl)-6-phenyl-1H-pyrazolo[3,4-d]pyrimidin-4-amine]
5.02 µM	7.28 µM		NC(=O)c1cccc(Nc2nc(-c3ccccc3)nc3c2cnn3C2CCN(Cc3ccccc3)CC2)c1 [Example 3, 3-{[1-(1-benzylpiperidin-4-yl)-6-phenyl-1H-pyrazolo[3,4-d]pyrimidin-4-yl]amino}benzamide]
10.1 µM	> 10 µM		c1ccc(CN2CCC(n3ncc4c(Nc5ccc6[nH]ccc6c5)nc(-c5ccccc5)nc43)CC2)cc1 [Example 4, 1-(1-benzylpiperidin-4-yl)-N-1H-indol-5-yl-6-phenyl-1H-pyrazolo[3,4-d]pyrimidin-4-amine]
7 µM	8.31 µM		CC(=O)Nc1cccc(Nc2nc(-c3ccccc3)nc3c2cnn3C2CCN(Cc3ccccc3)CC2)c1 [Example 5, N-(3-{[1-(1-benzylpiperidin-4-yl)-6-phenyl-1H-pyrazolo[3,4-d]pyrimidin-4-yl]amino}phenyl)acetamide]
7 µM	3.5 µM		NC(=O)c1ccc(Nc2nc(-c3cccc(O)c3)nc3c2cnn3C2CCN(Cc3ccccc3)CC2)cc1 [Example 6, 4-{[1-(1-benzylpiperidin-4-yl)-6-(3-hydroxyphenyl)-1H-pyrazolo[3,4-d]pyrimidin-4-yl]amino}benzamide]
5.92 µM	> 10 µM		COc1ccc(Nc2nc(-c3cccc(O)c3)nc3c2cnn3C2CCN(Cc3ccccc3)CC2)cc1OC [Example 7, 3-{1-(1-benzylpiperidin-4-yl)-4-[(3,4-dimethoxyphenyl)amino]-1H-pyrazolo[3,4-d]pyrimidin-6-yl}phenol]
7 µM	6.03 µM		NC(=O)c1cccc(Nc2nc(-c3cccc(O)c3)nc3c2cnn3C2CCN(Cc3ccccc3)CC2)c1 [Example 8, 3-{[1-(1-benzylpiperidin-4-yl)-6-(3-hydroxyphenyl)-1H-pyrazolo[3,4-d]pyrimidin-4-yl]amino}benzamide]
13.1 µM	> 10 µM		Oc1cccc(-c2nc(Nc3ccc4[nH]ccc4c3)c3cnn(C4CCN(Cc5ccccc5)CC4)c3n2)c1 [Example 9, 3-[1-(1-benzylpiperidin-4-yl)-4-(1H-indol-5-ylamino)-1H-pyrazolo[3,4-d]pyrimidin-6-yl]phenol]
4.66 µM	6.18 µM		CC(=O)Nc1cccc(Nc2nc(-c3cccc(O)c3)nc3c2cnn3C2CCN(Cc3ccccc3)CC2)c1 [Example 10, N-(3-{[1-(1-benzylpiperidin-4-yl)-6-(3-hydroxyphenyl)-1H-pyrazolo[3,4-d]pyrimidin-4-yl]amino}phenyl)acetamide]
1.58 µM	0.167 µM	0.95 µM	Cn1ncc2c(Nc3ccc(C(N)=O)cc3)nc(-c3ccccc3)nc21 [Example 11, 4-[(1-methyl-6-phenyl-1H-pyrazolo[3,4-d]pyrimidin-4-yl)amino]benzamide]
7.7 µM	> 10 µM		COc1ccc(Nc2nc(-c3ccccc3)nc3c2cnn3C2CCNCC2)cc1OC [Example 13, N-(3,4-dimethoxyphenyl)-6-phenyl-1-piperidin-4-yl-1H-pyrazolo[3,4-d]pyrimidin-4-amine]
8.3 µM	> 10 µM		CC(=O)Nc1cccc(Nc2nc(-c3ccccc3)nc3c2cnn3C2CCNCC2)c1 [Example 15, N-{3-[(6-phenyl-1-piperidin-4-yl-1H-pyrazolo[3,4-d]pyrimidin-4-yl)amino]phenyl}acetamide]
5.84 µM	> 10 µM		COc1ccc(Nc2nc(-c3cccc(O)c3)nc3c2cnn3C2CCNCC2)cc1OC [Example 17, 3-{4[(3,4-dimethoxyphenyl)amino]-1-piperidin-4-yl-1H-pyrazolo[3,4-d]pyrimidin-6-yl}phenol]
9.72 µM	> 10 µM		NC(=O)c1cccc(Nc2nc(-c3cccc(O)c3)nc3c2cnn3C2CCNCC2)c1 [Example 18, 3-{[6-(3-hydroxyphenyl)-1-piperidin-4-yl-1H-pyrazolo[3,4-d]pyrimidin-4-yl]amino}benzamide]
5.93 µM	> 10 µM		Oc1cccc(-c2nc(Nc3ccc4[nH]ccc4c3)c3cnn(C4CCNCC4)c3n2)c1 [Example 19, 3-[4-(1H-indol-5-ylamino)-1-piperidin-4-yl-1H-pyrazolo[3,4-d]pyrimidin-6-yl]phenol]
2.46 µM	2.81 µM		NC(=O)c1ccc(Nc2nc(-c3cccc([N+](=O)[O-])c3)nc3c2cnn3C2CCN(Cc3ccccc3)CC2)cc1 [Example 21, 4-{[1-(1-benzylpiperidin-4-yl)-6-(3-nitrophenyl)-1H-pyrazolo[3,4-d]pyrimidin-4-yl]amino}benzamide]
2.75 µM	2.65 µM		COc1cccc(-c2nc(Nc3ccc(C(N)=O)cc3)c3cnn(C4CCN(Cc5ccccc5)CC4)c3n2)c1 [Example 23, 4-{[1-(1-benzylpiperidin-4-yl)-6-(3-methoxyphenyl)-1H-pyrazolo[3,4-d]pyrimidin-4-yl]amino}benzamide]
5.25 µM	5.45 µM		NC(=O)c1ccc(Nc2nc(-c3ccc(O)cc3)nc3c2cnn3C2CCN(Cc3ccccc3)CC2)cc1 [Example 24, 4-{[1-(1-benzylpiperidin-4-yl)-6-(4-hydroxyphenyl)-1H-pyrazolo[3,4-d]pyrimidin-4-yl]amino}benzamide]
2.25 µM	3.43 µM		NC(=O)c1ccc(Nc2nc(-c3cccc(C(F)(F)F)c3)nc3c2cnn3C2CCN(Cc3ccccc3)CC2)cc1 [Example 25, 4-({1-(1-benzylpiperidin-4-yl)-6-[3-(trifluoromethyl)phenyl]-1H-pyrazolo[3,4-d]pyrimidin-4-yl}amino)benzamide]
4 µM	2.25 µM		NC(=O)c1ccc(Nc2nc(-c3ccccc3O)nc3c2cnn3C2CCN(Cc3ccccc3)CC2)cc1 [Example 26, 4-{[1-(1-benzylpiperidin-4-yl)-6-(2-hydroxyphenyl)-1H-pyrazolo[3,4-d]pyrimidin-4-yl]amino}benzamide]
3.32 µM	> 5.94 µM		COc1ccc(Nc2nc(-c3ccc(O)cc3)nc3c2cnn3C2CCN(Cc3ccccc3)CC2)cc1OC [Example 30, 4-{1-(1-benzylpiperidin-4-yl)-4-[(3,4-dimethoxyphenyl)amino]-1H-pyrazolo[3,4-d]pyrimidin-6-yl}phenol]
	> 9.75 µM		COc1ccc(N(C)c2nc(-c3ccccc3)nc3c2cnn3C)cc1OC [Example 36, N-(3,4-dimethoxyphenyl)-N,1-dimethyl-6-phenyl-1H-pyrazolo[3,4-d]pyrimidin-4-amine]
> 10 µM	3.78 µM		CN(C)c1ccc(-c2nc(Oc3ccc4[nH]ccc4c3)c3cnn(C)c3n2)cc1 [Example 40, 4-[4-(1H-indol-5-yloxy)-1-methyl-1H-pyrazolo[3,4-d]pyrimidin-6-yl]-N,N-dimethylaniline]
0.956 µM	1.21 µM		Cn1ncc2c(Oc3ccc4[nH]ccc4c3)nc(-c3cccc(C(F)(F)F)c3)nc21 [Example 42, 4-(1H-indol-5-yloxy)-1-methyl-6-[3-(trifluoromethyl)phenyl]-1H-pyrazolo[3,4-d]pyrimidine]
> 10 µM	2.87 µM		Cn1ncc2c(Oc3ccc4[nH]ccc4c3)nc(-c3cccc(-c4ccccc4)c3)nc21 [Example 44, 6-biphenyl-3-yl-4-(1H-indol-5-yloxy)-1-methyl-1H-pyrazolo[3,4-d]pyrimidine]
> 10 µM	6.04 µM		COc1ccc(Oc2nc(-c3ccc(N(C)C)cc3)nc3c2cnn3C)cc1OC [Example 47, 4-[4-(3,4-dimethoxyphenoxy)-1-methyl-1H-pyrazolo[3,4-d]pyrimidin-6-yl]-N,N-dimethylaniline]
> 10 µM	4.96 µM		CC(=O)Nc1ccc(Oc2nc(-c3ccc(N(C)C)cc3)nc3c2cnn3C)cc1 [Example 51, N-[4-({6-[4-(dimethylamino)phenyl]-1-methyl-1H-pyrazolo[3,4-d]pyrimidin-4-yl}oxy)phenyl]acetamide]
10.5 µM	1.33 µM		CC(=O)Nc1ccc(Oc2nc(-c3cccc(C(F)(F)F)c3)nc3c2cnn3C)cc1 [Example 52, N-[4-({1-methyl-6-[3-(trifluoromethyl)phenyl]-1H-pyrazolo[3,4-d]pyrimidin-4-yl}oxy)phenyl]acetamide]
> 10 µM	4.62 µM		CC(=O)Nc1ccc(Oc2nc(-c3cccc(-c4ccccc4)c3)nc3c2cnn3C)cc1 [Example 53, N-{4-[(6-biphenyl-3-yl-1-methyl-1H-pyrazolo[3,4-d]pyrimidin-4-yl)oxy]phenyl}acetamide]
